Article PMC13086964, “USP7 deubiquitinase stabilizes FAN1 to support DNA crosslink repair and suppress CAG repeat expansion” (Nature Communications, 2026)

What was measured:
USP7 foci in U2OS cells = assay: QIBC of endogenous USP7 foci; assay type: cell-based, human; conditions: MMC 150 ng/ml, 24 h
Procedure: Automated multichannel wide-field microscopy for QIBC was performed using the Olympus ScanR System as described previously. Images of cell populations were acquired under non-saturating conditions with Olympus ScanR Image Acquisition software 3.2 and 3.3.0, typically 16 (4×4) images per coverslip, and identical settings were applied to all samples of the same experiment. Images were analysed with the inbuilt Olympus ScanR Image Analysis Software Version 3.2 and 3.3.0, a dynamic background correction was applied, and nuclei segmentation was performed using an integrated intensity-based object detection module based on the DAPI signal. All downstream analyses were focused on properly detected nuclei containing a 2C-4C DNA content as measured by total and mean DAPI intensities. Fluorescence intensities were quantified and are depicted as arbitrary units. Color-coded scatterplots of asynchronous cell populations were generated with Spotfire data visualization software (TIBCO Spotfire 10.10.1.7). Within one experiment, similar cell numbers were compared for the different conditions. For visualizing discrete data in scatterplots, mild jittering (random displacement of data points along discrete data axes) was applied to demerge overlapping data points. Representative scatterplots and quantifications of independent experiments, typically containing several thousand cells each, are shown. […]

HeLa FAN1 KO cells = assay: clonogenic survival assay, HeLa FAN1 KO; assay type: cell-based, human; conditions: MMC 10, 20, and 40 ng/ml, 24 h, n=3
Procedure: HeLa and RPE-1 p53 KO cells were transfected with the indicated siRNA. The next day, the cells were seeded in six-well plates. The next day, the cells were treated with MMC for 24 h. Plates were then washed twice with 2 ml of PBS before adding fresh growth medium to the cells, that were then cultured for 13 days at 37 °C before fixation with crystal violet solution [0.5% crystal violet and 20% ethanol (w/v)]. For analysis, plates were scanned and analysed with the ImageJ Plugin ColonyArea using the parameter “intensity percent”. […]
the mean (dashed lines) are indicated. Representative images are shown (bottom). Scale bar: 10 μm. […]
Western blot analysis of HeLa cells depleted of the indicated factors. (E) Clonogenic survival assay of the HeLa cells depleted of the indicated factors (Ctrl: black circle; FANCD2: red square; USP7#1: inverted blue triangle; USP7#2: cyan triangle; RAD18: brown diamond) and exposed to increasing doses of MMC for 24 h. Viability of untreated cells was defined as 100%. Data are presented as the means ± SD of four biological replicates (n=4). Representative images are shown (left). (F) Western blot analysis of HeLa and HeLa FAN1 KO cells depleted of the indicated factors. […]

Q: For CO[C@@]12[C@H](COC(N)=O)C3=C(C(=O)C(C)=C(N)C3=O)N1C[C@@H]1N[C@@H]12 [MMC, Mitomycin C], which USP7 nuclear foci (USP7 foci in U2OS cells) is on record?
A: Its USP7 nuclear foci is “increased modestly in numbers”.

Q: What about the “MMC sensitivity, RAD18 or FANCD2 depletion” value (HeLa FAN1 KO cells) of the same compound?
A: Its value is “additive increase in sensitivity”.

Q: And the “MMC sensitivity, USP7 depletion” value (HeLa FAN1 KO cells)?
A: Its value is “did not exacerbate MMC hypersensitivity”.
